In experiment [1] the target is T1, HCV NS3/4A protease complex, H77C strain (Hepatitis C virus genotype 1a, UniProt P27958, C1454S).
T1 construct: recombinant HCV NS3/4A protease complex (amino acids 1027 to 1711); inferred from pET21b vector and Ni-NTA purification; made in house; host or cells: Escherichia coli BL21 (DE3), pET21b
Briefly: Recombinant HCV NS3/4A protease complex FRET peptide assay (H77C strain). It counts as biochemical, HCV genotype 1a. An excerpt:
(§1) Recombinant HCV NS3/4A Protease Complex FRET Peptide Assay
(§2) The purpose of this in vitro assay was to measure the inhibition of HCV NS3 protease complexes, derived from the BMS, H77C or J416S strains, as described below, by compounds of the present invention. This assay provides an indication of how effective compounds of the present invention would be in inhibiting HCV proteolytic activity.
(§3) Serum from an HCV-infected patient was obtained from Dr. T. Wright, San Francisco Hospital. An engineered full-length cDNA (compliment deoxyribonucleic acid) template of the HCV genome (BMS strain) was constructed from DNA fragments obtained by reverse transcription-PCR(RT-PCR) of serum RNA (ribonucleic acid) and using primers selected on the basis of homology between other genotype 1a strains. From the determination of the entire genome sequence, a genotype 1a was assigned to the HCV isolate according to the classification of Simmonds et al. (See P Simmonds, Kans. Rose, S Graham, S W Chan, F McOmish, B C Dow, E A Follett, P L Yap and H Marsden, J. Clin. Microbiol., 31(6), 1493-1503 (1993)). […]

Experiment [2] addresses T2, HCV NS3/4A protease complex, J4L6S strain (Hepatitis C virus genotype 1b, UniProt O92972, C1454S/C1711G).
T2 construct: recombinant HCV NS3/4A protease complex (amino acids 1027 to 1711); inferred from pET21b vector and Ni-NTA purification; made in house; host or cells: Escherichia coli BL21 (DE3), pET21b
Briefly: Recombinant HCV NS3/4A protease complex FRET peptide assay (J4L6S strain). The format is biochemical, HCV genotype 1b.
From the text: as §1, §2, §3

T1 sequence (P27958 1027-1657 C1454S): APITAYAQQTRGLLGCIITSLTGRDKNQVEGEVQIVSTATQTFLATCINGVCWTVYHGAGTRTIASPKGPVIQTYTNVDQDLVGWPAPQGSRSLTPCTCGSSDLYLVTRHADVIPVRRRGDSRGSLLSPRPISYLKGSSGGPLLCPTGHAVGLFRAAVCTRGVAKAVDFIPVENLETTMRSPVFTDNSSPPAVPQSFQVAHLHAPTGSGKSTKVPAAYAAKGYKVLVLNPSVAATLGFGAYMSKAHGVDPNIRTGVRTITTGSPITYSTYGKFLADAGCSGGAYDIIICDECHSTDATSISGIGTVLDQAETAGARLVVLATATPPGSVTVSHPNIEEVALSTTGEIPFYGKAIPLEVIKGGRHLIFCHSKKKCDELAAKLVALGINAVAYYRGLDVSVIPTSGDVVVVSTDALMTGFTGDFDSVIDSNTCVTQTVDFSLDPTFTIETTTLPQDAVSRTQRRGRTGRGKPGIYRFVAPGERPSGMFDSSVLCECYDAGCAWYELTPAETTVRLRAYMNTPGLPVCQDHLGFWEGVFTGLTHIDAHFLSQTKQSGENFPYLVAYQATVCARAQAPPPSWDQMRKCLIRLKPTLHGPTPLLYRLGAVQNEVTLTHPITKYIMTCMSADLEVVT
T1 sequence (P27958 1658-1714 partner, looked up, stated change not applied): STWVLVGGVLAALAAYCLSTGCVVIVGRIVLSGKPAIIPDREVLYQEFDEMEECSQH
T2 sequence (O92972 1027-1711 C1454S/C1711G, one chain of several): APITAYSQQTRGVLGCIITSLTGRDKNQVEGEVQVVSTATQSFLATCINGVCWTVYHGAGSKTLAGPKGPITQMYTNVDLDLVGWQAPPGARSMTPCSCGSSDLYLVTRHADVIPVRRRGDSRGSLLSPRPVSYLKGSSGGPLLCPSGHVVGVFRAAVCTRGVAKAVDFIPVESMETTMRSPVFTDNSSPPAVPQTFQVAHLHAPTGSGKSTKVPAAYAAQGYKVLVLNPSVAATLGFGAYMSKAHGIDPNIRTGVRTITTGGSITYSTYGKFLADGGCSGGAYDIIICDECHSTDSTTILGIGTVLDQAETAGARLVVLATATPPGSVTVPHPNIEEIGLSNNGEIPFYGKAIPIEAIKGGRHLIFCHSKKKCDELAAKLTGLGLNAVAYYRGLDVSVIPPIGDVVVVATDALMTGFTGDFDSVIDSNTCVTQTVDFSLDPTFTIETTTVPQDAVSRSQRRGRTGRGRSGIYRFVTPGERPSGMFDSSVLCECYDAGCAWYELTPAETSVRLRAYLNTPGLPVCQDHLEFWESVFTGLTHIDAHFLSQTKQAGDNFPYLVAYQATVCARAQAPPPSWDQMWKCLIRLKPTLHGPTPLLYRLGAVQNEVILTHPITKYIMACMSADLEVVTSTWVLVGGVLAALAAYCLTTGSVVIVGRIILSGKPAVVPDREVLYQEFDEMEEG

Take `C=C[C@@H]1C[C@]1(NC(=O)[C@@H]1C[C@@H](Oc2nc(C3CC3)cc3ccccc23)CN1C(=O)[C@@H](NC(=O)OC(C)(C)C)C(C)(C)C)C(=O)NS(=O)(=O)C1CC1` [Compound 34]: the half-maximal inhibitory concentration (IC50) (usually the concentration needed to halve the response being measured) is 3 nM in experiment [1] and 2.9 nM in experiment [2].
